The target in test [1] is T1, WbDHFR (dihydrofolate reductase) (Wuchereria bancrofti, UniProt J9F199). Nature of the test: X-ray crystal structure ([…] Å) and tryptophan fluorescence equilibrium titration. Further details: gene WUBG_00817; open reading frame with engineered N-terminal His6-tag. It counts as binding.
The target of test [2] is T1, WbDHFR (dihydrofolate reductase). Nature of the test: biochemical. More on the design: gene WUBG_00817.

Consider three compounds from PMC10191325 (PLOS Neglected Tropical Diseases, 2023).

In general, Kd refers to the constant that tells how readily two partners part at equilibrium. High values mean weaker binding, low ones tighter binding. Take `Nc1nc2ncc(CNc3ccc(C(=O)N[C@@H](CCC(=O)O)C(=O)O)cc3)nc2c(=O)[nH]1` [folate]: the equilibrium dissociation constant (Kd) in test [1] was found to be 23 ± 4 nM.
The IC50 is the concentration that gives 50% inhibition. A higher IC50 goes with weaker potency in that assay. With `COc1cc(NCc2ccc3nc(N)nc(N)c3c2C)cc(OC)c1OC` [TMX, trimetrexate], in test [2], the IC50 turned out to be 490 ± 160 nM.
As for `NC(=O)C1=CN([C@@H]2O[C@H](COP(=O)(O)OP(=O)(O)OC[C@H]3O[C@@H](n4cnc5c(N)ncnc54)[C@H](OP(=O)(O)O)[C@@H]3O)[C@@H](O)[C@H]2O)C=CC1` [NADPH], binding in test [1] was put at a Kd of 90 ± 29 nM.
